Converted amounts (≈) assume the structure as drawn. “And” between values parts separate entries of the source, which are not always exact repeats. Equal values may be shown once.
Columns and labels:
E. coli W3110 = test: MIC by broth microdilution; type: cell-based, Escherichia coli; conditions: Escherichia coli, W3110, WT, broth microdilution; read-out: MIC E. coli W3110
Procedure, shortened: (§1)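 Exponential-phase cultures (OD600 0.5, 37 °C aerobic), diluted 100-fold in CAMHB, were added to twofold compound dilution series. Keio strains grown with 50 µg ml^−1 kanamycin. Plates incubated overnight at 37 °C, shaking at 600 r.p.m.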

K. pneumoniae ATCC 29665 = test: MIC by broth microdilution; type: cell-based, Klebsiella pneumoniae; conditions: Klebsiella pneumoniae, ATCC29665, broth microdilution; read-out: MIC K. pneumoniae ATCC 29665
Procedure, shortened: as §1

HepG2 = test: Cytotoxicity assay (MTT); type: cell-based, human; conditions: for IC50: Homo sapiens, HepG2, 24 h, MTT, 24 h
Experimental: (§2) HepG2 (ATCC HB-8065) and HEK293T (ATCC CRL-3216) cell lines were cultured at 37 °C and 7% CO2 in Dulbecco’s modified Eagle medium (Sigma-Aldrich, D6546) with GlutaMax, penicillin (100 µg ml^−1), streptomycin (100 µg ml^−1) and 10% fetal calf serum. Cells were passaged twice a week by first detaching using 0.05% trypsin in phosphate-buffered saline (PBS) and then diluting to appropriate confluence. Compound cytotoxicity was evaluated using the standard (3-(4,5-dimethylthiazol-2-yl)-2,5-diphenyltetrazolium bromide (MTT) assay protocol (MTT assay protocol for cell viability and proliferation, Merck) with slight changes. HepG2 and HEK293T cells were seeded at a density of 1.5 × 10^4 cells per well in a clear 96-well tissue culture treated plate in a final volume of 100 µl in Dulbecco’s modified Eagle medium, supplemented with fetal bovine serum (1%), GlutaMax and penicillin/streptomycin. Cells were incubated for 24 h at 37 °C, 7% CO2 to allow cells to attach to the plates. […] Incubation was done for 24 h at 37 °C, 7% CO2. After the incubation, MTT was added to each well at a final concentration of 0.40 mg ml^−1. The plates were then incubated for 2 h at 37 °C, 7% CO2. Medium was carefully removed via suction, and purple formazan crystals were resuspended in 100 µl DMSO. Absorbance was read at 570 nm using a Clariostar plate reader with MARS (V4.20). The data were then analysed with GraphPad Prism software. IC50 values were calculated using non-linear fitted curve with variable slope settings, with values adjusted for background (plotted absorbance (ABS)sample = (ABSsample – ABSbackground) / (ABSvehicle – ABSbackground)). Technical triplicates for each condition were used, along with biological duplicates.

HEK293T = test: Cytotoxicity assay (MTT); type: cell-based, human; conditions: for MTT data (raw reading) / MTT data (raw readout): HEK293T; for IC50: Homo sapiens, HEK-293T, 24 h, MTT
Experimental: as §2

[1] = HepG2, 0.023 uM, experiment n = 1, technical triplicates
[2] = HepG2, 0.023 uM, experiment n = 2, technical triplicates
[3] = HepG2, 0.068 uM, experiment n = 1, technical triplicates
[4] = HepG2, 0.068 uM, experiment n = 2, technical triplicates
[5] = HepG2, 0.21 uM, experiment n = 1, technical triplicates
[6] = HepG2, 0.21 uM, experiment n = 2, technical triplicates
[7] = HepG2, 0.62 uM, experiment n = 1, technical triplicates
[8] = HepG2, 0.62 uM, experiment n = 2, technical triplicates
[9] = HepG2, 1.85 uM, experiment n = 1, technical triplicates
[10] = HepG2, 1.85 uM, experiment n = 2, technical triplicates
[11] = HepG2, 5.6 uM, experiment n = 1, technical triplicates
[12] = HepG2, 5.6 uM, experiment n = 2, technical triplicates
[13] = 0.023 uM, experiment n = 1, technical triplicates
[14] = 0.023 uM, experiment n = 2, technical triplicates
[15] = 0.068 uM, experiment n = 1, technical triplicates
[16] = 0.068 uM, experiment n = 2, technical triplicates
[17] = 0.21 uM, experiment n = 1, technical triplicates
[18] = 0.21 uM, experiment n = 2, technical triplicates
[19] = 0.62 uM, experiment n = 1, technical triplicates
[20] = 0.62 uM, experiment n = 2, technical triplicates
[21] = 1.85 uM, experiment n = 1, technical triplicates
[22] = 1.85 uM, experiment n = 2, technical triplicates
[23] = 5.6 uM, experiment n = 1, technical triplicates
[24] = 5.6 uM, experiment n = 2, technical triplicates
[25] = 16.7 uM, experiment n = 1, technical triplicates
[26] = 16.7 uM, experiment n = 2, technical triplicates

O=S(=O)(NCCNCc1ccc(-c2ccc(Cl)cc2)cc1)c1cccc2cnccc12 [Compound 61]
MIC (E. coli W3110): 6.25 µM (≈ 2.82 µg/mL) | MIC (K. pneumoniae ATCC 29665): > 50 µM | MTT data (raw reading) (HepG2; HepG2, 0.023 uM, n = 1): 0.473 and 0.481 and 0.514 | MTT data (raw reading) (HepG2; HepG2, 0.023 uM, n = 2): 0.517 and 0.561 and 0.567 | MTT data (raw reading) (HepG2; HepG2, 0.068 uM, n = 1): 0.534 and 0.501 and 0.482 | MTT data (raw reading) (HepG2; HepG2, 0.068 uM, n = 2): 0.479 and 0.534 and 0.570 | MTT data (raw reading) (HepG2; HepG2, 0.21 uM, n = 1): 0.462 and 0.484 and 0.480 | MTT data (raw reading) (HepG2; HepG2, 0.21 uM, n = 2): 0.576 and 0.558 and 0.573 | MTT data (raw reading) (HepG2; HepG2, 0.62 uM, n = 1): 0.454 and 0.449 | MTT data (raw reading) (HepG2; HepG2, 0.62 uM, n = 2): 0.464 and 0.502 and 0.467 | MTT data (raw reading) (HepG2; HepG2, 1.85 uM, n = 1): 0.401 and 0.414 and 0.404 | MTT data (raw reading) (HepG2; HepG2, 1.85 uM, n = 2): 0.454 and 0.456 and 0.471 | MTT data (raw reading) (HepG2; HepG2, 5.6 uM, n = 1): 0.017 and 0.021 and 0.022 | MTT data (raw reading) (HepG2; HepG2, 5.6 uM, n = 2): 0.042 and 0.022 and 0.021 | MTT data (raw reading) (HepG2; HepG2, 16.7 uM, n = 1): 0.009 and 0.013 | IC50 (HepG2): 2.8 µM | MTT data (raw reading) (HEK293T; 0.023 uM, n = 1): 0.895 and 1.117 and 0.888 | MTT data (raw reading) (HEK293T; 0.023 uM, n = 2): 0.606 and 0.823 and 0.767 | MTT data (raw reading) (HEK293T; 0.068 uM, n = 1): 1.228 and 1.100 and 1.289 | MTT data (raw reading) (HEK293T; 0.068 uM, n = 2): 0.594 and 0.790 and 0.797 | MTT data (raw reading) (HEK293T; 0.21 uM, n = 1): 1.193 and 1.192 and 1.600 | MTT data (raw reading) (HEK293T; 0.21 uM, n = 2): 0.478 and 0.738 and 0.728 | MTT data (raw reading) (HEK293T; 0.62 uM, n = 1): 0.992 and 0.937 and 0.903 | MTT data (raw reading) (HEK293T; 0.62 uM, n = 2): 0.540 and 0.686 and 0.703 | MTT data (raw reading) (HEK293T; 1.85 uM, n = 1): 0.640 and 0.552 and 0.507 | MTT data (raw reading) (HEK293T; 1.85 uM, n = 2): 0.345 and 0.480 and 0.465 | MTT data (raw reading) (HEK293T; 5.6 uM, n = 1): 0.114 and 0.126 and 0.094 | MTT data (raw reading) (HEK293T; 5.6 uM, n = 2): 0.048 and 0.047 and 0.040 | MTT data (raw reading) (HEK293T; 16.7 uM, n = 1): 0.021 and 0.012 and 0.016 | IC50 (HEK293T): 1 µM

N#Cc1ccc(-c2ccc(CNCCNS(=O)(=O)c3cccc4cnccc34)cc2)cc1 [Compound 63]
MIC (E. coli W3110): 6.25 µM (≈ 2.77 µg/mL) | MIC (K. pneumoniae ATCC 29665): 12.5 µM (≈ 5.53 µg/mL) | MTT data (raw readout) (HepG2; [1]): 0.543 and 0.530 and 0.509 | MTT data (raw readout) (HepG2; [2]): 0.611 and 0.614 and 0.593 | MTT data (raw readout) (HepG2; [3]): 0.510 and 0.515 and 0.533 | MTT data (raw readout) (HepG2; [4]): 0.570 and 0.587 and 0.633 | MTT data (raw readout) (HepG2; [5]): 0.498 and 0.524 and 0.534 | MTT data (raw readout) (HepG2; [6]): 0.605 and 0.658 and 0.657 | MTT data (raw readout) (HepG2; [7]): 0.497 and 0.566 and 0.560 | MTT data (raw readout) (HepG2; [8]): 0.617 and 0.653 and 0.661 | MTT data (raw readout) (HepG2; [9]): 0.544 and 0.508 and 0.538 | MTT data (raw readout) (HepG2; [10]): 0.697 and 0.634 and 0.669 | MTT data (raw readout) (HepG2; [11]): 0.597 and 0.586 and 0.658 | MTT data (raw readout) (HepG2; [12]): 0.663 and 0.721 and 0.746 | MTT data (raw readout) (HepG2; HepG2, 16.7 uM, experiment n = 1, technical triplicates): 0.547 and 0.517 and 0.544 | MTT data (raw readout) (HepG2; HepG2, 16.7 uM, experiment n = 2, technical triplicates): 0.629 and 0.671 and 0.616 | IC50 (HepG2): 38 µM | MTT data (raw readout) (HEK293T; [13]): 0.901 and 1.153 and 1.291 | MTT data (raw readout) (HEK293T; [14]): 0.788 and 0.714 and 0.753 | MTT data (raw readout) (HEK293T; [15]): 1.230 and 1.606 | MTT data (raw readout) (HEK293T; [16]): 0.880 and 0.788 | MTT data (raw readout) (HEK293T; [17]): 1.126 and 1.263 and 1.301 | MTT data (raw readout) (HEK293T; [18]): 0.786 and 0.824 and 0.781 | MTT data (raw readout) (HEK293T; [19]): 1.516 and 1.537 and 1.418 | MTT data (raw readout) (HEK293T; [20]): 0.850 and 0.846 and 0.825 | MTT data (raw readout) (HEK293T; [21]): 1.143 and 1.250 and 1.118 | MTT data (raw readout) (HEK293T; [22]): 0.775 and 0.761 and 0.773 | MTT data (raw readout) (HEK293T; [23]): 1.050 and 1.130 and 1.181 | MTT data (raw readout) (HEK293T; [24]): 0.666 and 0.667 and 0.723 | MTT data (raw readout) (HEK293T; [25]): 0.577 and 0.585 and 0.499 | MTT data (raw readout) (HEK293T; [26]): 0.403 and 0.407 and 0.398 | MTT data (raw readout) (HEK293T; 50 uM, experiment n = 1, technical triplicates): 0.057 and 0.055 and 0.049 | IC50 (HEK293T): 14.7 µM

O=S(=O)(NCCNCc1ccc(-c2ccc(F)nc2)c(F)c1)c1cccc2cnccc12 [Compound 89]
MIC (E. coli W3110): 6.25 µM (≈ 2.84 µg/mL) | MIC (K. pneumoniae ATCC 29665): 12.5 µM (≈ 5.68 µg/mL) | MTT data (raw readout) (HepG2; [1]): 1.211 and 1.032 and 1.095 | MTT data (raw readout) (HepG2; [2]): 0.940 and 0.892 and 0.823 | MTT data (raw readout) (HepG2; [3]): 1.059 and 1.047 and 0.930 | MTT data (raw readout) (HepG2; [4]): 0.912 and 0.982 and 0.829 | MTT data (raw readout) (HepG2; [5]): 1.201 and 1.007 and 1.154 | MTT data (raw readout) (HepG2; [6]): 0.862 and 0.878 and 0.892 | MTT data (raw readout) (HepG2; [7]): 0.908 and 1.012 and 1.031 | MTT data (raw readout) (HepG2; [8]): 0.861 and 0.862 and 0.848 | MTT data (raw readout) (HepG2; [9]): 0.964 and 0.831 and 0.983 | MTT data (raw readout) (HepG2; [10]): 0.918 and 0.866 and 0.845 | MTT data (raw readout) (HepG2; [11]): 0.840 and 0.880 and 0.890 | MTT data (raw readout) (HepG2; [12]): 0.798 and 0.838 and 0.803 | IC50 (HepG2): 6.8 µM | MTT data (raw readout) (HEK293T; [13]): 1.460 and 1.327 and 1.155 | MTT data (raw readout) (HEK293T; [14]): 1.578 and 1.464 and 1.567 | MTT data (raw readout) (HEK293T; [15]): 1.383 and 1.285 and 1.405 | MTT data (raw readout) (HEK293T; [16]): 1.657 and 1.634 and 1.543 | MTT data (raw readout) (HEK293T; [17]): 1.422 and 1.388 and 1.379 | MTT data (raw readout) (HEK293T; [18]): 1.511 and 1.515 and 1.445 | MTT data (raw readout) (HEK293T; [19]): 1.302 and 1.254 and 1.287 | MTT data (raw readout) (HEK293T; [20]): 1.280 and 1.339 and 1.417 | MTT data (raw readout) (HEK293T; [21]): 1.134 and 1.184 and 1.193 | MTT data (raw readout) (HEK293T; [22]): 1.303 and 1.294 and 1.289 | MTT data (raw readout) (HEK293T; [23]): 0.891 and 0.915 and 0.826 | MTT data (raw readout) (HEK293T; [24]): 0.987 and 0.926 and 0.889 | MTT data (raw readout) (HEK293T; [25]): 0.240 and 0.299 and 0.212 | MTT data (raw readout) (HEK293T; [26]): 0.285 and 0.310 and 0.251 | IC50 (HEK293T): 8.9 µM

Source: PMC11374673, “Discovery of isoquinoline sulfonamides as allosteric gyrase inhibitors with activity against fluoroquinolone-resistant bacteria” (Nature Chemistry, 2024)
